Measurements as given in patent US20110224226A1, “COMPOSITIONS AND METHODS FOR INCREASING BLOOD PLATELET LEVELS IN HUMANS” (AKARX, Inc., priority 2006, published 2011).
Like-named read-outs stand apart in the source and are kept apart here.

Assays:
human c-Mpl = target: T1, human c-Mpl (Homo sapiens, UniProt P40238); test: interference with rhTPO binding to human platelets; details: concentrations up to 100 μM
T1 construct: endogenous in cells; host or cells: human platelets
T1 sequence (P40238 26-635): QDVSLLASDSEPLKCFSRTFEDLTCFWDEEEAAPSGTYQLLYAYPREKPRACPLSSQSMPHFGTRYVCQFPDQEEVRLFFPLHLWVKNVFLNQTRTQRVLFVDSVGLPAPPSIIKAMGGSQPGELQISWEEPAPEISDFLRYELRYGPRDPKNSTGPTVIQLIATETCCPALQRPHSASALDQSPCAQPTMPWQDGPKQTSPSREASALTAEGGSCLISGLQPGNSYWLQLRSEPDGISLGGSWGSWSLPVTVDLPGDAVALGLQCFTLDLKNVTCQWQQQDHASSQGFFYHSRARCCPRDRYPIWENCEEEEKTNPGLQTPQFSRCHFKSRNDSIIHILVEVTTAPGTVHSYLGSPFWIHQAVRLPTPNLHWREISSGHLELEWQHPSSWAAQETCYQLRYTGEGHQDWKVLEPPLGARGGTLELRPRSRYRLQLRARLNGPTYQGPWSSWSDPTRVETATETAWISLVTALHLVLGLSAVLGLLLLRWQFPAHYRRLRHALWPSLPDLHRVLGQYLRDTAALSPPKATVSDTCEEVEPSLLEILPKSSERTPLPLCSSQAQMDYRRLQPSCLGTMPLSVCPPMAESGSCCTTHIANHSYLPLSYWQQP

[1] = species specificity of activity; set-up: species or system chimpanzee and man
[2] = in-vitro plasma protein binding, monkeys; type: in vitro ADME; details: monkey, 0.05 to 50 μg/mL
Procedure: The in-vitro plasma protein binding of the drug of Formula I was independent of concentration over the concentration range of 0.05 to 50 μg/mL and was 87.2-89.1% in mice; 87.6-89.2% in rats; 88.3-92.0% in rabbits; […] in dogs; 97.0-97.6% in monkeys; and 96.3-96.6% in humans.

[3] = Example 2 multi-dose study: pharmacokinetics; type: in vivo, human; details: for Tmax at 14 days: read-out: mean time to maximum plasma concentration (Tmax); for Cmax at 14 days: read-out: mean maximum plasma concentration (Cmax)
Procedure: A double-blind, placebo-controlled, dose rising study was performed in healthy male and female volunteers. Each dose cohort received either placebo or active treatment as an oral suspension once daily for fourteen (14) consecutive days. The dose of study drug was prepared and administered as described in Example 1 above. The doses administered in this multiple dose study were based on the safety and tolerability assessment of the doses administered in Example 1.
Based on the results of Example 1, the starting dose was 3 mg. Based on the safety and tolerability results from Example 1, the dose was scheduled to be escalated to 10, 20, 50 and 100 mg per day for 14 consecutive days. Successive dose cohorts were not treated until the previous cohort completed 14 days of treatment and the safety follow-up visit on Day 21.

[4] = both sexes, human, in vivo, oral, 3 mg once daily, Study Day 14, mean
[5] = both sexes, human, in vivo, oral, 10 mg once daily, Study Day 14, mean
[6] = both sexes, human, in vivo, oral, 20 mg once daily, Study Day 14, simulated data at steady-state

## O=C(Nc1nc(-c2cc(Cl)cs2)c(N2CCN(C3CCCCC3)CC2)s1)c1cnc(N2CCC(C(=O)O)CC2)c(Cl)c1 [Formula I, 1-(3-chloro-5-{[4-(4-chlorothiophen-2-yl)-5-(4-cyclohexylpiperazin-1-yl)thiazol-2-yl]carbamoyl}pyridin-2-yl)piperadine-4-carboxylic acid]
Human c-Mpl
  interference with rhTPO binding to human platelets: does not interfere
[1]
  species specificity: activity only in the chimpanzee and man
[2]
  fraction unbound: 0.024 to 0.03
[3]; both sexes, human, in vivo, oral, 3 mg, 3 mg once daily, Study Day 1, mean, read-out: AUC0-last
  AUC(0-t): 235 ng·h/mL
[3]; both sexes, human, in vivo, oral, 3 mg, 3 mg once daily, Study Day 1, median
  Tmax: 6 h
[3]; both sexes, human, in vivo, oral, 3 mg, 3 mg once daily, Study Day 14, mean, read-out: AUC0-last
  AUC(0-t): 659 ng·h/mL
[3]; both sexes, human, in vivo, oral, 3 mg, 3 mg once daily, Study Day 14, median
  Tmax: 6 h
[3]; both sexes, human, in vivo, oral, 10 mg, 10 mg once daily, Study Day 1, mean, read-out: AUC0-last
  AUC(0-t): 841 ng·h/mL
[3]; both sexes, human, in vivo, oral, 10 mg, 10 mg once daily, Study Day 1, median
  Tmax: 6 h
[3]; both sexes, human, in vivo, oral, 10 mg, 10 mg once daily, Study Day 14, mean, read-out: AUC0-last
  AUC(0-t): 2360 ng·h/mL
[3]; both sexes, human, in vivo, oral, 10 mg, 10 mg once daily, Study Day 14, median
  Tmax: 4.5 h
[3]; both sexes, human, in vivo, oral, 20 mg, 20 mg once daily, Study Day 1, mean, read-out: AUC0-last
  AUC(0-t): 1960 ng·h/mL
[3]; both sexes, human, in vivo, oral, 20 mg, 20 mg once daily, Study Day 1, median
  Tmax: 6 h
[3]; both sexes, human, in vivo, oral, 20 mg, 20 mg once daily, Study Day 14, median, simulated data at steady-state
  Tmax: 6 h
[3]; both sexes, human, in vivo, oral, 20 mg, 20 mg once daily, Study Day 14, simulated data at steady-state, read-out: AUC0-last
  AUC(0-t): 3610 ng·h/mL
[3]; [4]
  AUC(0-inf): 804 ng·h/mL
  half-life: 18.2 h
[3]; both sexes, human, in vivo, oral, 3 mg once daily, Study Day 14, mean, read-out: Cmax, ss
  Cmax: 25.6 ng/mL
[3]; [5]
  AUC(0-inf): 2870 ng·h/mL
  half-life: 18.1 h
[3]; both sexes, human, in vivo, oral, 10 mg once daily, Study Day 14, mean, read-out: Cmax, ss
  Cmax: 94.1 ng/mL
[3]; [6]
  AUC(0-inf): 7150 ng·h/mL
  half-life: 20.8 h
[3]; both sexes, human, in vivo, oral, 20 mg once daily, Study Day 14, simulated data at steady-state, read-out: Cmax, ss
  Cmax: 205 ng/mL
[3]; both sexes, human, in vivo, oral, multi-dose study, independent of dose
  half-life at 14 days: 18 to 21 h
[3]; both sexes, human, in vivo, 3 mg once daily oral suspension, Study Day 1, mean, read-out: Cmax
  Cmax: 14.8 ng/mL
[3]; both sexes, human, in vivo, 10 mg once daily oral suspension, Study Day 1, mean, read-out: Cmax
  Cmax: 53.2 ng/mL
[3]; both sexes, human, in vivo, 20 mg once daily oral suspension, Study Day 1, mean, read-out: Cmax
  Cmax: 121 ng/mL
[3]; both sexes, human, plasma, oral, 3 mg, 3 mg dose administered over about fourteen (14) days, human, read-out: mean AUC0-last
  AUC(0-t): ~659 ng·h/mL
[3]; both sexes, human, plasma, oral, 3 mg, 3 mg dose administered over about fourteen (14) days, human
  Tmax at 14 days: ~6 h
[3]; both sexes, human, plasma, oral, 10 mg, 10 mg dose administered over about fourteen (14) days, human, read-out: mean AUC0-last
  AUC(0-t): ~2360 ng·h/mL
[3]; both sexes, human, plasma, oral, 10 mg, 10 mg dose administered over about fourteen (14) days, human
  Tmax at 14 days: ~4.4 h
[3]; both sexes, human, plasma, oral, 20 mg, 20 mg dose administered over about fourteen (14) days, human, Table 3: simulated data at steady-state, read-out: mean AUC0-last
  AUC(0-t): ~3610 ng·h/mL
[3]; both sexes, human, plasma, oral, 20 mg, 20 mg dose administered over about fourteen (14) days, human, Table 3: simulated data at steady-state
  Tmax at 14 days: ~5.5 h
[3]; both sexes, plasma, oral, 3 mg dose administered over about fourteen (14) days, human
  Cmax at 14 days: ~25 ng/mL
[3]; both sexes, plasma, oral, 10 mg dose administered over about fourteen (14) days, human
  Cmax at 14 days: ~94 ng/mL
[3]; both sexes, plasma, oral, 20 mg dose administered over about fourteen (14) days, human, Table 3: simulated data at steady-state
  Cmax at 14 days: ~204 ng/mL
[3]; following single and repeat administration, 3 mg to 20 mg
  dose proportionality of Cmax and AUC: increased proportionally with respect to dose
